{"source": "patent US20100331233A1", "about": "“CRYSTAL OF XPA AND ERCC1 COMPLEX AND USES THEREOF” (priority 2007, published 2010)", "key": {"[1]": {"tested_on": "NER activity in HeLa cell extracts", "test": "In vitro NER assay: excision of a 1,3-intrastrand cisplatin adduct from plasmid in HeLa cell extract with XPA peptide", "format": "biochemical"}, "[2]": {"target": "T1, ERCC192-214 (Homo sapiens, UniProt P07992)", "T1 construct": "an ERCC1 central domain fragment consisting of amino acids 92-214 preceded by an N-terminal hexahistidine tag; made in house; host or cells: E. coli BL21(DE3), M9 minimal media with 15N-labeled NH4Cl", "T1 sequence (P07992 92-214)": "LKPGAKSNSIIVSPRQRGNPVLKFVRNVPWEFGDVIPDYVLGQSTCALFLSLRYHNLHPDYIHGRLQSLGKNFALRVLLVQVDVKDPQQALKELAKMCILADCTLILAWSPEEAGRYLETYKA", "test": "15N HSQC NMR chemical shift perturbation of 15N-labeled ERCC1", "format": "binding", "conditions": "15N HSQC spectrum of ERCC1-XPA complex; read-out: dissociation equilibrium constant implied by slow-exchange regime", "description": "FIG. 3 illustrates the binding of XPA67-80 in a shallow groove of ERCC1. (A) A comparison of the two dimensional HSQC spectra for ^15N-labeled ERCC192-214 in the presence and absence of an unlabeled XPA67-80 peptide. The ^15N HSQC spectra reveal significant chemical shift changes for some ERCC1 residues (labeled) in the absence or presence of unlabeled XPA67-80. (B) Combined average chemical shift perturbations are calculated as Δχave=[((Δχ1H)^2+(Δχ15N/5)^2)/2)]^1/2 for each backbone amide of ERCC1 and shown as a histogram.\nNMR experiments and determination of the structure of XPA-ERCC1 complex. All NMR data were acquired in the NMR Buffer described above. […] Backbone assignments of the free ERCC192-214 and ERCC1-XPA67-80 complex were performed using a standard set of triple-resonance experiments: HNCA/HN(CO)CA, HN(CA)CB/HN(COCA)CB and HNCO/HN(CA)CO.\nIdentification of the ERCC1 binding site in complex with XPA. The binding site for XPA on the surface of ERCC1 (FIG. 2B) was identified using two dimensional HSQC experiments. […] The ^15N HSQC spectrum of the ERCC1-XPA complex is consistent with a slow-exchange regime, implying a dissociation equilibrium constant below 1 μM for the complex. The XPA binding site on the ERCC1 central domain was identified using the backbone assignments for […] alone and in complex with XPA (see below). […]"}, "[3]": {"target": "T2, ERCC1-XPF (Homo sapiens, UniProt P07992)", "T2 sequence (P07992 1-297)": "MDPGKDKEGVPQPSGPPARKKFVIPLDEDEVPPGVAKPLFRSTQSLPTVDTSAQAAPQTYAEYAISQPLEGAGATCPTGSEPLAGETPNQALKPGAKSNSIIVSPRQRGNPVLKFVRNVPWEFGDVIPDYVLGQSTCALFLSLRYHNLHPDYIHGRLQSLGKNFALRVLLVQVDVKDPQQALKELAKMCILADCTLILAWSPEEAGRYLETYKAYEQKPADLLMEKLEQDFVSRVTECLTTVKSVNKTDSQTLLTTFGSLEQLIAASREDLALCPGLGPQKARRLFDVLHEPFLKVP", "T2 sequence (Q92889 1-916 partner)": "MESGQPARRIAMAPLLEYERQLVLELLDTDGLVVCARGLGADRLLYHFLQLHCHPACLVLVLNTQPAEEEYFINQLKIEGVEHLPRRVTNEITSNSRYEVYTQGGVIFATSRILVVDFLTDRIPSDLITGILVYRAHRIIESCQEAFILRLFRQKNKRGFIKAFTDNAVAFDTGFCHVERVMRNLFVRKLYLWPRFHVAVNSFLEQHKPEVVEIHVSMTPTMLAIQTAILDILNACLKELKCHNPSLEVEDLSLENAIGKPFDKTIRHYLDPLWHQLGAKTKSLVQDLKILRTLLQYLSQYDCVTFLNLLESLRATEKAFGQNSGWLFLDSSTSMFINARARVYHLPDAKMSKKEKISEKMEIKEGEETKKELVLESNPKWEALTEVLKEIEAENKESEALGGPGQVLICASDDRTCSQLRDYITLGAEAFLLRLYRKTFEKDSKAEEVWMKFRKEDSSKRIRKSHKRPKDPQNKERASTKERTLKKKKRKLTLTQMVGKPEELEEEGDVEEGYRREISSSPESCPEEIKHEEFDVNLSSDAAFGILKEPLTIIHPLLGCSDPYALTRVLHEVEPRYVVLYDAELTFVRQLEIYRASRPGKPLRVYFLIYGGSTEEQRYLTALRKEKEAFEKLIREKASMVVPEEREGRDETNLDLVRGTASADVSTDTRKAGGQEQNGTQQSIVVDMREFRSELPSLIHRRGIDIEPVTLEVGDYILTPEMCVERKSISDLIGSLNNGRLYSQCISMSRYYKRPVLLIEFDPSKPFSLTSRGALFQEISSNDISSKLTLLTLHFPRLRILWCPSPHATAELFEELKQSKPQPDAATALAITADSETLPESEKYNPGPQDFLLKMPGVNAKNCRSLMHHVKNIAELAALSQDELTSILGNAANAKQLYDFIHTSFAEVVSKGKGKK", "test": "Nuclease assay: incision of stem-loop DNA substrate by purified ERCC1-XPF", "format": "biochemical", "conditions": "92 μM peptide", "description": "Nuclease assay. A substrate consisting of a 12 base pair stem with a 22 nucleotide loop (5′-[…](T)22[…]; SEQ ID NO:7) was 5′ end labeled using a T4 polynucleotide kinase and [γ-^32P]-ATP. […] The final reaction volume was 15 μl."}}, "note": "No end group written: not given here.", "data": [{"sequence": "KIIDTGGGFILEEE [XPA67-80]", "values": [{"measurement": "NER activity at 92 μM peptide", "setting": "[1]; HeLa cell extract, 92 μM", "result": "completely abolishes NER activity"}, {"measurement": "effect on NER excision of the lesion-containing oligonucleotide", "setting": "[1]; HeLa cell free extract, plasmid with 1,3-cisplatin intrastrand crosslink, peptide 46 nM to 92 μM", "result": "inhibits the in vitro NER reaction"}, {"measurement": "Kd", "setting": "[2]", "result": "< 1000", "unit": "nM"}, {"measurement": "effect on intrinsic nuclease activity of ERCC1-XPF", "setting": "[3]; 0.4 mM MnCl2", "result": "do not affect"}, {"measurement": "effect on intrinsic nuclease activity of ERCC1-XPF", "setting": "[3]; 0.4 mM MnCl2, listed as XPA peptide", "result": "has no effect"}]}]}
